In brackets after ≈: the same amount, converted by molar mass. Where two headings read alike, the source gives them in different places.
How the values were obtained:
[1] = target: T1, porcine tubulin (Sus scrofa, UniProt P02554); design: method as in doi:10.2533/chimia.2007.368; details: known tubulin inhibitors; cited from earlier work
T1 construct: purified porcine brain tubulin; purchased Cytoskeleton, Inc., Denver, CO BK011P; host or cells: porcine brain (tissue-purified)

[2] = test system: C. neoformans isolates; assay: MIC determination, EUCAST methodology; type: cell-based, Cryptococcus neoformans; details: for MIC: Cryptococcus neoformans
Procedure: (§1) The initial in vitro susceptibility testing was performed with H99 (ATCC 208821). An additional 49 clinical isolates were obtained from the National Centre for Microbiology Instituto de Salud Carlos III, Madrid, Spain (courtesy of Ana Alastruey-Izquierdo and Manual Cuenca-Estrella). These isolates were identified to the species level using standard microbiological techniques.
(§2) The MIC of flubendazole against H99 (ATCC 208821) and the 49 isolates was estimated using methodology of the European Committee on Antimicrobial Susceptibility Testing (EUCAST [25]) and the Clinical and Laboratory Standards Institute (CLSI [26]). The endpoint for MIC determination using was 50% for both the EUCAST and CLSI methods. MICs were performed in triplicate.

[3] = test system: C. neoformans isolates; assay: MIC determination, CLSI methodology; type: cell-based, Cryptococcus neoformans; details: 50 strains
Procedure: as §1, §2

[4] = target: T1, porcine tubulin; assay: Porcine tubulin polymerization assay; type: biochemical; details: 37°C, 1 h, read-out: IC50 against porcine tubulin
Procedure: Porcine tubulin is generally used as a surrogate for human tubulin because of its high degree of homology (95%) ([27]). […] The commercially available porcine tubulin assay (BK011P; Cytoskeleton, Inc., Denver, CO) quantifies the time-dependent polymerization of tubulin to microtubules and thus the ability of tubulin inhibitors to disrupt this process.
The porcine tubulin assay was performed according to the manufacturer's instructions. Briefly, the 96-well assay plate was prewarmed to 37°C prior to use. Five microliters of test compound(s) and controls at 0, 1.25, 2.5, 5, and 10 μM were aliquoted into each well and prewarmed for 1 min. […] Polymerization was initiated by mixing 45 μl of reaction buffer that contained 2 mg/ml of purified porcine brain tubulin, 10 μM fluorescent reporter, PEM buffer (80 mM PIPES, 0.5 mM EGTA, 2 mM MgCl2 [pH 6.9]), 1 mM GTP, and 20.3% glycerol. Tubulin polymerization was followed by an increase in fluorescence intensity due to the incorporation of a fluorescence reporter into microtubules as polymerization occurred. The change in fluorescence was measured using an excitation and emission wavelength of 360 nm and 450 nm, respectively, every 1 min for 1 h at 37°C using a Varioskan multimode plate reader (Thermo scientific Inc.). All data points were acquired in triplicate, and IC50s were calculated with GraphPad Prism. […]

[5] = In vitro DMPK: logD7.4; type: physicochemical; details: pH 7.4; commercially available powder
[6] = In vitro DMPK: plasma protein binding; type: in vitro ADME
[7] = In vitro DMPK: human microsomal intrinsic clearance; type: in vitro ADME; details: human microsomes
[8] = In vitro DMPK: rat hepatic intrinsic clearance; type: in vitro ADME; details: hepatocytes
[9] = In vitro DMPK: aqueous solubility; type: physicochemical
[10] = test system: C. neoformans var. grubii (ATCC 208821; H99); assay: Hollow-fiber infection model of cryptococcal meningoencephalitis; type: cell-based, Cryptococcus neoformans; details: q24h for 8 days, intended peaks 1.25, 2.5, 10 mg/liter
Procedure: A new hollow-fiber infection model was developed to investigate the in vitro pharmacodynamics of flubendazole against C. neoformans. The same cartridges (FiberCell Systems, Frederick, MD) and configuration as previously described for bacterial pathogens was used (see, for example, reference). The extracapillary space of each cartridge was inoculated with 40 ml of a suspension containing 6 log10 CFU/ml of C. neoformans var. grubii (ATCC 208821; H99). Yeast extract-peptone-dextrose (YPD) medium was pumped from the central compartment through the cartridge and back again using a peristaltic pump (205 U; Watson-Marlow, United Kingdom). The hollow-fiber infection model was incubated at 37°C in ambient air. The time course of fungal growth was determined by removing 1 ml from the extracapillary space of the cartridge and plating serial 10-fold dilutions to YPD agar.
The relationship between flubendazole exposure and its effect was explored using a range of drug exposures. […] Various doses of flubendazole were administered q24h by infusion over 1 h for 8 days to the central compartment using a programmable syringe driver (Aladdin pump; World Precision Instruments, United Kingdom). There was a 24-h delay in the initiation of flubendazole therapy postinoculation. […]

[11] = test system: Cryptococcus neoformans; type: in vivo, mice
[12] = design: species or system mice; details: mouse, in vivo
Procedure: The pharmacokinetics of oral flubendazole was determined with two independently conducted experiments. Treatment was initiated 24 h postinoculation. Doses of 2 to 12 mg/kg were used. Only the first dosing interval was studied. A serial-sacrifice design was used with groups of 3 mice that were sacrificed at 0.5, 1, 2, 8, and 24 h […].
(§3) The pharmacokinetic and pharmacodynamic data sets from mice were modeled using the program Pmetrics ([33]) and the following five inhomogeneous differential equations: (1) XP(1)=B(1)−Ka×X(1) (2) XP(2)=Ka×X(1)−(SCL/V)×X(2)−Kcp×X(2)+Kpc×X(3)−Kcb×X(2)+Kbc×X(4) (3) XP(3)=Kcp×X(2)−Kpc×X(3) (4) XP(4)=[…] (5) XP(5) = Kgmax [1−((X(4)/V)^Hg/C50g^Hg+(X(4)/V)^Hg)] × [1−(X(5)/POPMAX)]×X(5)
(§4) The system parameters and their units are as follows: B(1) (mg) represents the bolus input of flubendazole into the gut. Ka (h^−1) is the first-order rate constant collecting the gut and the central compartment, SCL (liters/h) is the clearance of flubendazole from the central compartment, V (liters) is the volume of the central compartment, and Kcp (h^−1) and Kpc (h^−1) are the first-order intercompartmental rate constants. Kgmax (log10 CFU/g/h) is the maximal rate of cryptococcal growth. POPMAX (CFU/g) is the maximum theoretical fungal density. C50g (mg/liter) is the concentration of flubendazole that induces half-maximal effects on growth. Hg is the slope function for growth. The initial condition (CFU/g; not shown in the equations) is the fungal density immediately following inoculation and is estimated along with other parameters.
(§5) Equations 1, 2, 3, and 4 are pharmacokinetic equations that describe the movement of drug from the gut, throughout the body, and into the brain. Equation 1 describes the movement of drug from the gut. Equation 2 describes the rate of change of flubendazole in the central compartment (plasma) with first-order clearance and movement of drug to and from both a peripheral (unmeasured) compartment and the cerebrum. Equations 3 and 4 describe the rate of change of drug in the peripheral and cerebral compartments, respectively. The pharmacodynamics of flubendazole against Cryptococcus neoformans is described by equation 5, which has terms that describe the capacity-limited growth of Cryptococcus and flubendazole-induced suppression of growth. The antifungal activity in the cerebrum is primarily related to concentrations in the cerebrum.

[13] = test system: Cryptococcus neoformans; assay: Pharmacodynamics of oral flubendazole nanoformulation in murine model of cryptococcal meningitis; type: in vivo; details: mice
Procedure: A previously described ([8]) and well-characterized murine model of cryptococcal meningitis was used to investigate the pharmacodynamics of flubendazole. All laboratory animal experiments were performed under UK Home Office project license PPL40/3630 and were approved by the University of Liverpool's Animal Welfare Ethics Review Board. Male CD1 mice were purchased from Charles River and were 20 to 30 g at the time of experimentation. An inoculum of 3 × 10^8 CFU in 0.25 ml was used for each mouse. Groups of mice (n = 3) were serially sacrificed throughout the experimental period. The brains were removed and homogenized. Serial 10-fold dilutions were plated to YPD agar supplemented with chloramphenicol to enumerate the total fungal burden. Plates were incubated in air at 30°C for at least 48 h.
The pharmacodynamics of oral flubendazole was estimated over the course of three separate independently conducted experiments. Groups of 3 mice were sacrificed at 2, 24, 48, 96, 144, and 168 h postinoculation. Dose finding studies were performed using flubendazole at 2, 4, 6, 8, and 12 mg/kg q24h orally. The upper dosage was limited by the volume restrictions for mice imposed by Home Office project license PPL40/3630. A fourth experiment compared 12 mg/kg q24 with 6 mg/kg q12h to examine whether more fractionated regimens provided any additional antifungal effect.
as §3, §4, §5

[14] = test system: Cryptococcus neoformans; assay: Pharmacodynamics in rabbit model of cryptococcal meningitis; type: in vivo; details: rabbits; for antifungal effect: CSF
Procedure: A previously described and well-characterized rabbit model of cryptococcal meningoencephalitis ([32]) was used to further investigate the pharmacodynamics of flubendazole. Male New Zealand White rabbits were purchased from Harlan. Rabbits weighed 2.5 to 3 kg at the time of experimentation. Rabbits were immunosuppressed intramuscularly with hydrocortisone at 10 mg/kg on day −1 relative to infection and then daily throughout the experiment.
Cryptococcal meningoencephalitis was induced with the intracisternal inoculation of 0.25 ml of a suspension containing 3.8 × 10^8 CFU/ml under general anesthesia (induced with medetomidine and ketamine). This inoculum results in progressive infection that manifests as an increase in fungal burden in the CSF and reproducible encephalitis. There was minimal clinical disease with no demonstrable neurological signs in the experimental period. Mortality always occurred in the context of cisternal tapping and repeated anesthesia rather than from progressive infection.
We directly linked plasma concentrations with the antifungal effect.

[15] = design: method as in PMID 26443851; details: cited from earlier work
[16] = test system: filarial diseases such as onchocerciasis and lymphatic filariasis; design: method as in PMID 21609260; details: given subcutaneously; cited from earlier work
[17] = rats, 5, 15, 30 mg/kg/day (male), 2.5, 5, 10 mg/kg/day (female), 2 weeks; ref Janssen GLP toxicology studies; cited from earlier work
[18] = dogs, 20, 40, 100 mg/kg/day, 2 weeks; ref Janssen GLP toxicology studies; cited from earlier work
[19] = Pharmacokinetics of oral flubendazole in rabbits
Procedure: PK-PD relationships in the rabbit were estimated in two independently conducted experiments including 6 rabbits in each. Rabbits were placed under general anesthesia for removal of CSF via intracisternal tapping at 48 h intervals. […] Treatment was initiated 48 h postinoculation and continued for 10 days, after which time all rabbits were sacrificed. Thus, the total duration of the experiment was 288 h.
Flubendazole concentrations in all matrices were measured using validated ultrahigh-performance liquid chromatography-tandem mass spectrometry (LC-MS/MS) implemented on an Agilent 6420 triple quad mass spectrometer and an Agilent 1290 infinity LC system (Agilent Technologies UK Ltd., Cheshire, UK). Flubendazole was extracted by protein precipitation by adding 300 μl of a 50:50 mix of acetonitrile and methanol that contained the internal standard [6,7-dimethyl-2,3-di(2-pyridyl) quinoxaline; Sigma-Aldrich, Dorset, UK] at a final concentration of 1 mg/liter to 30 μl of each matrix.

T1 sequence (P02554 whole entry): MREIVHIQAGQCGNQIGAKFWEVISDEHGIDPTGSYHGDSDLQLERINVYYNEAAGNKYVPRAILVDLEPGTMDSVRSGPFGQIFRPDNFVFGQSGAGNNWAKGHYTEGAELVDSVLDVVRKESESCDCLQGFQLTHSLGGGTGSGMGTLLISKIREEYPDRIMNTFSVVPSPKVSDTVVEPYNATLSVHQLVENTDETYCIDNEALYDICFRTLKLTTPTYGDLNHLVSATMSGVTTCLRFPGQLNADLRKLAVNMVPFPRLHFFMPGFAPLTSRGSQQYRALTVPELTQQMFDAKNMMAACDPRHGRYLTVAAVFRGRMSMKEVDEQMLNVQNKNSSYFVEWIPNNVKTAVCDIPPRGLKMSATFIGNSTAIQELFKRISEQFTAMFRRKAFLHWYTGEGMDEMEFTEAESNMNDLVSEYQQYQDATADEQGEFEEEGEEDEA
T1 sequence (P02550 whole entry partner): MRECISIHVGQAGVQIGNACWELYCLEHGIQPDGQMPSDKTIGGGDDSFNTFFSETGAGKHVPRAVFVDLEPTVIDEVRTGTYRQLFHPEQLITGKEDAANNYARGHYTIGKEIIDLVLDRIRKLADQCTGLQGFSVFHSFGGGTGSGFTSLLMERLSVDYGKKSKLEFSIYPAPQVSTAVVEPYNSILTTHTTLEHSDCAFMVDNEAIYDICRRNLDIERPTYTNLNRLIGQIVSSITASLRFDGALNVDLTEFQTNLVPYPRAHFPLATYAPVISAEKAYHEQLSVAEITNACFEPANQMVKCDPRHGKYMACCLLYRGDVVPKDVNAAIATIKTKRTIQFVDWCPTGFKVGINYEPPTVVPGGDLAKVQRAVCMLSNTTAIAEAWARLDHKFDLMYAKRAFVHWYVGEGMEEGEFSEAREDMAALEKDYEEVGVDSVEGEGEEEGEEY

Compound: CC[C@]1(O)C[C@@H]2CN(CCc3c([nH]c4ccccc34)[C@@](C(=O)OC)(c3cc4c(cc3OC)N(C)[C@H]3[C@@](O)(C(=O)OC)[C@H](OC(C)=O)[C@]5(CC)C=CCN6CC[C@]43[C@@H]65)C2)C1 [vinblastine]
- IC50 [1]: 5.3 µM

Compound: CC(=O)O[C@H]1C(=O)[C@@]2(C)[C@H]([C@H](OC(=O)c3ccccc3)[C@]3(O)C[C@H](OC(=O)[C@H](O)[C@@H](NC(=O)c4ccccc4)c4ccccc4)C(C)=C1C3(C)C)[C@]1(OC(C)=O)CO[C@@H]1C[C@@H]2O [paclitaxel]
- IC50 [1]: 3.9 µM

Compound: COC(=O)Nc1nc2cc(C(=O)c3ccc(F)cc3)ccc2[nH]1 [flubendazole]
- MIC ([2]; EUCAST methodology, read-out: modal MIC): 0.125 mg/L (≈ 0.399 µM)
- MIC ([2]; range over isolates, Table 1, comparable with EUCAST and CLSI, read-out: MICs): 0.06 to 0.25 mg/L (≈ 0.192 to 0.798 µM)
- No. of isolates with MIC (mg/liter) of: 0.03 ([2]; EUCAST, 50 strains): 1
- No. of isolates with MIC (mg/liter) of: 0.06 ([2]; EUCAST, 50 strains): 19
- No. of isolates with MIC (mg/liter) of: 0.125 ([2]; EUCAST, 50 strains): 25
- No. of isolates with MIC (mg/liter) of: 0.25 ([2]; EUCAST, 50 strains): 5
- No. of isolates with MIC (mg/liter) of: 0.5 ([2]; EUCAST, 50 strains): 0
- No. of isolates with MIC (mg/liter) of: 0.03 [3]: 2
- No. of isolates with MIC (mg/liter) of: 0.06 [3]: 40
- No. of isolates with MIC (mg/liter) of: 0.125 [3]: 8
- No. of isolates with MIC (mg/liter) of: 0.25 [3]: 0
- No. of isolates with MIC (mg/liter) of: 0.5 [3]: 0
- IC50 [4]: 2.38 µM
- logD [5]: 2.9
- fraction unbound [6]: 0.094
- microsomal CLint [7]: 44 µL/min/mg
- hepatocyte CLint [8]: 39 µL/min/1e6 cells
- solubility [9]: 0.8 µM (≈ 0.251 µg/mL)
- antifungal activity in hollow-fiber model [10]: Rapid fungicidal activity
- antifungal effect, orally administered pure compound ([11]; mice, oral, water, polysorbate 80/PBS, DMSO, PEG400 or cyclodextrin vehicles, data not shown): no demonstrable antifungal effect
- flubendazole concentrations in plasma and cerebrum ([11]; mouse, in vivo): quantifiable in plasma and the cerebrum
- absorption after oral dosing [12]: rapidly absorbed
- Ka, mean ([12]; po): 11.312 h⁻¹
- Ka, median ([12]; po): 14.895 h⁻¹
- Kbc, mean ([12]; po): 0.056 h⁻¹
- Kbc, median ([12]; po): 0.056 h⁻¹
- Kcb, mean ([12]; po): 3.446 h⁻¹
- Kcb, median ([12]; po): 0.594 h⁻¹
- Kcp, mean ([12]; po): 15.741 h⁻¹
- Kcp, median ([12]; po): 15.404 h⁻¹
- Kpc, mean ([12]; po): 16.997 h⁻¹
- Kpc, median ([12]; po): 16.915 h⁻¹
- SCL/F (apparent clearance), mean ([12]; po): 0.039 L/h
- SCL/F (apparent clearance), median ([12]; po): 0.026 L/h
- Vb/F (apparent volume of brain), mean ([12]; po): 0.277 L
- Vb/F (apparent volume of brain), median ([12]; po): 0.146 L
- Vc/F (apparent volume of central compartment), mean ([12]; po): 0.051 L
- Vc/F (apparent volume of central compartment), median ([12]; po): 0.069 L
- cerebrum concentrations relative to plasma ([12]; po): consistently higher than those observed in plasma
- ratio of AUC for serum and AUC for cerebrum ([12]; po): 1:4.44
- reduction in fungal burden compared with vehicle-treated controls ([13]; 12 mg/kg of body weight/day orally (abstract)): ~2 log10CFU/g
- effect on fungal growth in the brain ([13]; 12 mg/kg/day orally): slowed but did not prevent fungal growth in the brain
- C50g (concentration inducing half-maximal effects on growth), mean ([13]; PK-PD model): 2.04 mg/L
- C50g (concentration inducing half-maximal effects on growth), median ([13]; PK-PD model): 1.68 mg/L
- Hg (slope function for effect on growth), mean ([13]; PK-PD model): 10.338
- Hg (slope function for effect on growth), median ([13]; PK-PD model): 5.096
- antifungal effect of 6 mg/kg q12h compared with 12 mg/kg/day ([13]; oral, single experiment, data not shown): no difference in antifungal effect
- antifungal effect ([14]; 6 mg/kg/day orally): no demonstrable antifungal effect
- antifungal effect ([14]; 22.5 mg/kg q24h orally, few animals): the effect was small
- fungal burden in the cerebrum at the end of the experiment vs other groups ([14]; 6 and 22.5 mg/kg q24h, 288 h postinoculation, P = 0.464): no difference in the fungal burden
- aneugenicity [15]: aneugenic
- clastogenicity [15]: clastogenic
- embryotoxicity [15]: embryotoxic
- activity in filarial disease models [16]: striking activity
- toxicity findings [17]: evidence of toxicity related to the pharmacological activity of flubendazole in the gastrointestinal tract, lymphoid system, and bone marrow, as well as testicular toxicity
- liver toxicity [18]: liver toxicity was also observed
- toxicity findings [18]: evidence of toxicity related to the pharmacological activity of flubendazole in the gastrointestinal tract, lymphoid system, and bone marrow, as well as testicular toxicity
- oral bioavailability [19]: orally bioavailable
- drug concentrations in CSF or cerebrum ([19]; oral 6 or 22.5 mg/kg q24h, at time of sacrifice, limit of quantitation 0.0005 mg/liter): no quantifiable drug concentrations
